Measured values as given in patent publication US9605285B2, “Compositions and methods for succinate production” (CARGILL, INCORPORATED, priority 2011, dated 2017).

Test system: yeast cells
Test: EMS mutagenesis of yeast cells
Type: cell-based
Details: 3 μL EMS per 200 μL cell suspension, approximately one hour
Description: For example, yeast cells from a fresh YP (yeast extract/peptone)+20 g/L glucose plate or liquid culture (OD600 1-4) are resuspended in sterile water to an OD600 of around 10. 200 μL aliquots of this cell suspension are pipetted into individual tubes and exposed to 3 μL […] (EMS) for approximately one hour, which kills around 65% of the cells. Higher EMS concentrations can also be used to increase the kill rate. After exposure, cells are neutralized with 5% sodium thiosulfate, washed in PBS buffer, recovered in rich media for approximately four hours, and cultured on selective media. Mock samples (no EMS) are also run to ensure that the conditions are selective. Alternatively, cell can be mutagenized using UV irradiation.

CCOS(C)(=O)=O [EMS, ethane methyl sulfonate]
Cells killed: around 65%
